Results: patent US12551471B2, “ABT-751 and ionizing radiation” (Stichting Het Nederlands Kanker Instituut-Antoni van …, priority 2020, dated 2026)
Entries after “also recorded” stand apart in the source; their conditions may differ.

What was measured:
[1] = test system: GSC457 brain cancer cells; experiment: Mitotic enrichment (p-H3 immunohistochemistry) in orthotopic GSC457 brain tumors; type: in vivo, mice
Protocol: To study the pharmacokinetic-pharmacodynamic relationship of ABT-751 in vivo, we made use of a genetically engineered mouse model-derived brain cancer model that was previously established in our lab. We implanted these GSC457 brain cancer cells in the brains of recipient mice and followed up their growth using bioluminescence imaging. When full-blown tumors had established, we treated tumor-bearing mice with different doses of ABT-751 and collected their brains 6 hours or 24 hours after administration. […] We next aimed to confirm whether repeated induction of mitotic enrichment was feasible and efficient in vivo. Using the same murine brain cancer model as described above, we quantified the number of mitotic cells in tumors 6 hours after administration of one dose of 50 mg/kg of ABT-751 and compared the levels to those in tumors 6 hours after receiving a second administration of 50 mg/kg of ABT-751 either 24 or 48 hours after the first administration. We again confirmed that mitotic enrichment can efficiently be induced by ABT-751 in brain cancer in vivo (FIG. 8). […] In the clinic, the standard-of-care for glioblastoma—the most common and aggressive adult brain cancer—involves ionizing radiation and concomitant alkylating chemotherapy using temozolomide. Therefore, we next confirmed that induction of mitotic enrichment in vivo using ABT-751 is compatible with chemo-radiotherapy.

[2] = test system: GSC457 tumors and healthy surrounding brain tissue; experiment: Immunohistochemistry for DNA damage and apoptosis markers, on-treatment samples, orthotopic GSC457 tumors; type: in vivo, mice; conditions: ABT-751 prior to radiotherapy
[3] = test system: U87 human brain cancer cell line; experiment: Radiosensitization efficacy study, orthotopic U87 model; type: in vivo, mice
Source text: This U87 model is more intrinsically radiosensitive and was therefore irradiated with fractions of 1 Gy instead of 4 Gy as used above.

[4] = test system: cancer cell lines of various origins (brain, colorectal, prostate, head & neck and cervical cancer); experiment: Flow cytometric cell cycle analysis (propidium iodide and phospho-histone H3 staining); type: cell-based
Protocol: We first studied whether ABT-751 increases the mitotic population of cancer cell lines (FIG. 1). Several lines of various origins—brain, colorectal, prostate, head & neck and cervical cancer—were exposed to a dose range of ABT-751 and incubated for 6 hours, after which the cell cycle was analyzed by flow cytometry. […] This analysis confirmed that ABT-751 dose-dependently increases the mitotic population of cancer cell lines at the expense of the relatively radio-resistant G1 population. […] This shift in cell cycle distribution will hereafter be referred to as induction of mitotic enrichment. […] Importantly, the G2 phase of the cell cycle is unaffected. […] In the first set-up, we irradiated cells prior to exposure to ABT-751 (FIG. 5A). In the second approach, we irradiated cells prematurely after only 1 hour of exposure to ABT-751 while maintaining the total exposure time of ABT-751 at 6 hours (FIG. 5B).

[5] = Plasma and brain concentration after oral administration (LC-MS/MS); type: in vivo; conditions: mice, oral 50 mg/kg
Protocol: In order to facilitate the in vivo translation of the radiosensitization approach, we first established the dose level that achieved clinically relevant plasma concentrations in mice. Using a validate LC-MS/MS method, we measured the plasma concentration—time curve in mice following oral administration of 50 mg/kg ABT-751 in formulation containing DMSO:Cremophor EL:H2O (1:1:8).

GBM8 tumors = experiment: Radiosensitization efficacy study, orthotopic GBM8 model; type: in vivo, mice
Protocol: (§1) Mice bearing these GBM8 tumors were stratified between 5 treatment arms: • 1. Control treatment, • 2. 100 mg/kg daily ABT-751 for 4 days/week for 6 consecutive weeks • 3. 4 1 Gy of ionizing radiotherapy (RT) for 4 days/week for 6 consecutive weeks • 4. ABT-751 given 6 hours prior to RT for 4 days/week for 6 consecutive weeks • 5. RT administered prior to ABT-751 for 4 days/week for 6 consecutive weeks
(§2) The growth of these tumors could be followed up using bioluminescence imaging.

[6] = Animal weights throughout efficacy studies; type: in vivo; conditions: mice bearing orthotopic GSC457, U87 or GBM8 tumors
Source text: Finally, to investigate whether the mitotic enrichment strategy using ABT-751 induced toxicity in healthy tissues we studied several parameters.

[7] = test system: tumor cells from various origins; experiment: Clonogenic assays with ionizing radiation (radiosensitization); type: cell-based
Protocol: Using clonogenic assays, we confirmed that induction of mitotic enrichment by ABT-751 radiosensitizes tumor cells from various origins. To achieve induction of mitotic enrichment, we exposed cells to 1 μM of ABT-751 for 6 hours, at which time we exposed cells to a dose range of ionizing radiation (FIG. 4A). Directly after irradiation, we washed ABT-751 away and waited for 18 hours before the process was repeated. In total, the process of induction of mitotic enrichment and subsequent irradiation was repeated 4 times to resemble a clinical hyperfractionation schedule. After the last fraction, cells were left to grow out into viable colonies and clonogenic potential was quantified. […] In the first set-up, we irradiated cells prior to exposure to ABT-751 (FIG. 5A). In the second approach, we irradiated cells prematurely after only 1 hour of exposure to ABT-751 while maintaining the total exposure time of ABT-751 at 6 hours (FIG. 5B).

[8] = test system: various cancer cell lines; experiment: Cell survival assay; type: cell-based; conditions: 1 μM ABT-751, up to 10 hours of exposure
Source text: Importantly, induction of mitotic enrichment could be achieved without inducing cytotoxicity.

GSC457 tumors = experiment: Radiosensitization efficacy study, orthotopic GSC457 tumors; type: in vivo, mice; conditions: 4 weeks
Protocol: as §1, with “The first model is described above and was also used to study the […] relationship in FIGS. 7-9. Mice” for “Mice”, “these GSC457” for “these GBM8”, “2. 50” for “2. 100”, “for 4” for “for 6”, “4” for “4 1”
as §2

[9] = healthy surrounding brain tissue
[10] = cells irradiated prior to exposure to ABT-751
[11] = dose range of ABT-751, incubated for 6 hours
[12] = two brain cancer cell lines, 1 μM for up to 8 hours, washed away, followed until 48 hours
[13] = ABT-751 6 hours prior to RT, versus radiotherapy
[14] = ABT-751 alone, 100 mg/kg daily, 4 days/week, 6 weeks

COc1ccc(S(=O)(=O)Nc2cccnc2Nc2ccc(O)cc2)cc1 [ABT-751, N-[2-(4-hydroxyanilino)-3-pyridinyl]-4-methoxybenzenesulfonamide]
mitotic population ([1]; all doses, 24 hours after administration): reverted to baseline levels | mitotic enrichment in brain tumors (p-H3 staining) ([1]; different doses, brains collected 6 hours after administration): dose-dependently induced mitotic enrichment in brain tumors in vivo | mitotic enrichment ([1]; given concomitantly with chemo-radiotherapy involving temozolomide): can induce mitotic enrichment | mitotic enrichment ([1]; given concomitantly with radiotherapy alone): can induce mitotic enrichment | doses achieving the most clear increases in mitotic enrichment ([1]; p-H3 staining, GSC457 tumors): ≥ 50 mg/kg | repeated induction of mitotic enrichment ([1]; second 50 mg/kg dose 24 or 48 hours after the first, 6 hours after administration): feasible without loss of efficiency when a waiting period of 24 hours or longer is observed between subsequent doses | DNA damage (yH2A.X) [2, 9]: did not increase DNA damage (yH2A.X) | apoptosis (cleaved-Caspase 3) [2, 9]: did not increase | apoptosis ([2]; in the tumor, compared to radiotherapy alone): did strongly increase apoptosis specifically in the tumor compared to radiotherapy alone | survival benefit ([3]; ABT-751 6 hours prior to RT, fractions of 1 Gy): doubled the survival benefit that was achieved by RT alone | survival benefit ([3]; ABT-751 administered after RT): did not achieve a survival benefit | mitotic enrichment [4, 10]: could not induce mitotic enrichment when cells were irradiated prior to exposure | G1 cells (DNA 2N, pHH3-) [4, 11]: at the expense of G1 cells | S phase cells (DNA 2N-4N, pHH3-) [4, 11]: stay unaffected | amount of G2 cells (DNA 4N, pHH3-) [4, 11]: appears to increase slightly | percentage of mitotic cells (DNA 4N, pHH3+) [4, 11]: dose-dependently increases the percentage of mitotic cells | G2 phase of the cell cycle [4, 12]: unaffected | mitotic population over time and after wash-out (reversibility) [4, 12]: induces a time-dependent increase of the mitotic population that reverts back to pre-exposure levels after the drug is removed | concentration at which maximum achievable mitotic enrichment was achieved ([4]; within 6 hours, all cell lines tested): 1 µM | concentration in the brain ([5]; 8 hours after administration, 50 mg/kg): still in the range of the concentration that is sufficient to induce mitotic enrichment in vitro; also recorded: supersede the concentration required to achieve mitotic enrichment in vitro for up to 8 hours | plasma concentration ([5]; DMSO:Cremophor EL:H2O (1:1:8)): in the range of those achieved in patients at a clinically safe dose levels for up to 8 hours | survival (GBM8 tumors; [13]): extended survival | tumor growth (GBM8 tumors; [13]): further slowed down tumor growth | efficacy (tumor growth, survival) (GBM8 tumors; ABT-751 administered after radiotherapy): Increased efficacy could not be observed | survival (GBM8 tumors; [14]): did not affect | tumor growth (GBM8 tumors; [14]): did not affect tumor growth | weight of mice [6]: no treatment-related weight loss | clonogenic potential (radiosensitization) ([7]; 1 μM ABT-751 for 6 hours before ionizing radiation, repeated 4 times): radiosensitizes cancer cells of various origins | clonogenic potential (radiosensitization) ([7]; cells irradiated after only 1 hour of exposure, total exposure 6 hours): In neither of the sequences radiosensitizing effects of ABT-751 were observed | clonogenic potential (radiosensitization) [7, 10]: In neither of the sequences radiosensitizing effects of ABT-751 were observed | viability (cytotoxicity) [8]: No loss of viability was observed up to 10 hours of exposure | effect of RT on tumor growth and mouse survival (GSC457 tumors; 50 mg/kg ABT-751 6 hours prior to 4 Gy RT, 4 days/week): could be enhanced by given ABT-751 6 hours prior to every fraction of radiotherapy | radiosensitizing effect (GSC457 tumors; RT administered prior to ABT-751, 4 days/week): a similar radiosensitizing effect could not be observed
